# Data published in paper PMC12490239, “Combining BET inhibition with SMAC mimetics restricts tumor growth and triggers immune surveillance in preclinical cancer models” (Cell Reports Medicine, 2025).
# pIC50: −log10 of the molar value.
# Key:
# Assay in all cases: cells
# Parameters in all cases: CellTiter-Glo 2.0 luminescence proliferation/viability assay, single agents, human tumour cell line panel
# Gp2D = details: GP2d, 96 h; single agent; read-out: IC50 SMACm
# Procedure, shortened: (§1)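 Human tumour cell lines were seeded into assay plates and held at 37°C with 5% CO2 for twenty-four hours, then exposed in triplicate to rising concentrations of the SMAC mimetic, from 4.5 nM to 10 μM, with DMSO as control. After 96 h, viability was read as CellTiter-Glo2.0 luminescence to derive single-agent IC50 values.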
# NCI-H2122 = details: Homo sapiens, NCI-H2122, 96 h; single agent; read-out: IC50 SMACm
# Procedure, shortened: as §1
# C70 = details: 96 h; single agent; read-out: IC50 SMACm
# Procedure, shortened: as §1
# C75 = details: 96 h; single agent; read-out: IC50 SMACm
# Procedure, shortened: as §1
# LS-174T = details: Homo sapiens, LS174T, 96 h; single agent; read-out: IC50 SMACm
# Procedure, shortened: as §1
# BxPC-3 = details: Homo sapiens, BXPC-3, 96 h; single agent; read-out: IC50 SMACm
# Procedure, shortened: as §1
# NCI-H1975 = details: Homo sapiens, NCI-H1975, 96 h; single agent; read-out: IC50 SMACm
# Procedure, shortened: as §1
# SNU977 = details: 96 h; single agent; read-out: IC50 SMACm
# Procedure, shortened: as §1
# Calu-6 = details: Homo sapiens, Calu-6, 96 h; single agent; read-out: IC50 SMACm
# Procedure, shortened: as §1
# RKO = details: Homo sapiens, RKO, 96 h; single agent; read-out: IC50 SMACm
# Procedure, shortened: as §1
# GCIY = details: Homo sapiens, GCIY, 96 h; single agent; read-out: IC50 SMACm
# Procedure, shortened: as §1
# GSU = details: 96 h; single agent; read-out: IC50 SMACm
# Procedure, shortened: as §1
# MKN74 = details: Homo sapiens, MKN-74, 96 h; single agent; read-out: IC50 SMACm
# Procedure, shortened: as §1
# LoVo = details: Homo sapiens, LoVo, 96 h; single agent; read-out: IC50 SMACm
# Procedure, shortened: as §1
# HCT-116 = details: Homo sapiens, HCT-116, 96 h; single agent; read-out: IC50 SMACm
# Procedure, shortened: as §1
structure (smiles),measurement,setting,value
"CN[C@@H](C)C(=O)Nc1ccc(-c2c(-c3cccnc3OC)nc3cc(C)ccn23)c(C#Cc2ccc3c(C)nccc3c2)n1 [SMACm, BI 891065]",pIC50,Gp2D,5.44
same,pIC50,NCI-H2122,5.29
same,pIC50,C70,5.48
same,pIC50,C75,5.55
same,pIC50,LS-174T,5.62
same,pIC50,BxPC-3,6.28
same,pIC50,NCI-H1975,5.33
same,pIC50,SNU977,5.54
same,pIC50,Calu-6,5.31
same,pIC50,RKO,5.29
same,pIC50,GCIY,5.40
same,pIC50,GSU,5.25
same,pIC50,MKN74,5.34
same,pIC50,LoVo,5.32
same,pIC50,HCT-116,5.39
